Reference: patent US7741327B2 (Hoffmann-La Roche Inc., priority 2008, dated 2010)

Molecular target: T1, Recombinant human liver GK1 (GST-GK) (Homo sapiens, UniProt P35557)
T1 construct: made in house; host or cells: E. coli
T1 sequence (P35557 1-466 isoform P35557-2): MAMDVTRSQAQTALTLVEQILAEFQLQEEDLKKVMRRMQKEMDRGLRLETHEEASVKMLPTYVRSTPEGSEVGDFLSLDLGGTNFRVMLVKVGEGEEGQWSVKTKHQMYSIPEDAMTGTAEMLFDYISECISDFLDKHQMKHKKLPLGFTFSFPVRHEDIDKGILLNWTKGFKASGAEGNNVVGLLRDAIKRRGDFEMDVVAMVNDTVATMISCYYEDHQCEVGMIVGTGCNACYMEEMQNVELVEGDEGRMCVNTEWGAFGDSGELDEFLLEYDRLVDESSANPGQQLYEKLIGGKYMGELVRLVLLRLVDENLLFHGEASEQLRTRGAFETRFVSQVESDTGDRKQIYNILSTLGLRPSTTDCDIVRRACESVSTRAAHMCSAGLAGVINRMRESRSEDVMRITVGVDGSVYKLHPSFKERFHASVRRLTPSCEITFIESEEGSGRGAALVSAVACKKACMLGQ
Assay: In vitro glucokinase activity (G6PDH-coupled NADH assay)
Format: biochemical
Settings: 30° C., 5 mM D-glucose, 10% DMSO
Protocol: Glucokinase In Vitro Assay Protocol: Glucokinase (GK) was assayed by coupling the production of glucose-6-phosphate to the generation of NADH with glucose-6-phosphate dehydrogenase (G6PDH, 0.75-1 kunits/mg; Boehringer Mannheim, Indianapolis, Ind.) from Leuconostoc mesenteroides as the coupling enzyme (Scheme 2).
Recombinant human liver GK1 was expressed in E. coli as a glutathione S-transferase fusion protein (GST-GK) [Liang et al, 1995] and was purified by chromatography over a glutathione-Sepharose 4B affinity column using the procedure provided by the manufacturer (Amersham Pharmacia Biotech, Piscataway, N.J.).
The assay was conducted at 30° C. in a flat bottom 96-well tissue culture plate from Costar (Cambridge, Mass.) with a final incubation volume of 120 μL. The incubation reaction contained the following: 25 mM Hepes buffer (pH 7.1), 25 mM KCl, 5 mM D-glucose, 1 mM ATP, 1.8 mM NAD, 2 mM MgCl2, 1 μM sorbitol-6-phosphate, 1 mM dithiothreitol, test drug or 10% dimethylsulfoxide, ˜7 units/ml G6PDH, and GK (see below). All organic reagents were >98% pure and were from Boehringer Mannheim with the exceptions of D-glucose and Hepes which were from Sigma Chemical Co, St Louis, Mo. Test compounds were dissolved in dimethylsulfoxide and were added to the incubation reaction minus GST-GK in a volume of 12 μL to yield a final dimethylsulfoxide concentration of 10%. This mix was pre-incubated in the temperature controlled chamber of a SPECTRAmax 250 microplate spectrophotometer (Molecular Devices Corporation, Sunnyvale, Calif.) for 10 min to allow temperature equilibrium and then the reaction was started by the addition of 20 μL GST-GK.
After addition of enzyme, the increase in optical density (OD) at 340 nm was monitored spectrophotometrically to determine the rate of change (OD340 per min). The GK activity (OD340/min) in control wells (10% DMSO minus GK activators) was compared with the activity in wells containing test GK activators, and the concentration of activator that produced a 50% increase in the activity of GK, i.e., the SC1.5, was calculated. The table below provides the in vitro glucokinase activity for the compounds in the Examples: […]

SC1.5 (concentration of activator that produced a 50% increase in the activity of GK) [µM] | SMILES
0.307 | CCOc1cccc(OC2=CC(=O)N([C@@H](CC(C)C)C(=O)Nc3ccn(C[C@@H](O)CO)n3)C2)c1 [Example 162, (S)-2-[4-(3-Ethoxy-phenoxy)-2-oxo-2,5-dihydro-pyrrol-1-yl]-4-methyl-pentanoic acid [1-((R)-2,3-dihydroxy-propyl)-1H-pyrazol-3-yl]-amide]
1.196 | CC(C)C[C@@H](C(=O)Nc1ccn(CC(=O)O)n1)N1CC(Oc2cccc(C3CC3)c2F)=CC1=O [Example 149, (3-{(S)-2-[4-(3-Cyclopropyl-2-fluoro-phenoxy)-2-oxo-2,5-dihydro-pyrrol-1-yl]-4-methyl-pentanoylamino}-pyrazol-1-yl)-acetic acid]
0.796 | CC(C)C[C@@H](C(=O)Nc1ccn(C[C@@H]2COC(C)(C)O2)n1)N1CC(Oc2cccc(N(C)C)c2F)=CC1=O [Example 139, (S)-2-[4-(3-Dimethylamino-2-fluoro-phenoxy)-2-oxo-2,5-dihydro-pyrrol-1-yl]-4-methyl-pentanoic acid [1-((R)-2,2-dimethyl-[1,3]dioxolan-4-yl-methyl)-1H-pyrazol-3-yl]-amide]
12.232 | CC(C)NC1=CC(=O)N([C@@H](CC2CCCCC2)C(=O)Nc2ccn(CC(C)(C)O)n2)C1 [Example 232, (S)-3-cyclohexyl-N-[1-(2-hydroxy-2-methyl-propyl)-1H-pyrazol-3-yl]-2-(4-isopropylamino-2-oxo-2,5-dihydro-pyrrol-1-yl)-propionamide]
0.325 | O=C(Nc1ccn(C[C@@H](O)CO)n1)[C@H](Cc1ccccc1F)N1CC(Oc2ccccc2Cl)=CC1=O [Example 183, (S)-2-[4-(2-chloro-phenoxy)-2-oxo-2,5-dihydro-pyrrol-1-yl]-N-[1-((R)-2,3-dihydroxy-propyl)-1H-pyrazol-3-yl]-3-(2-fluorophenyl)-propionamide]
4.538 | CC(F)(F)C[C@@H](C(=O)Nc1ccn(C[C@@H](O)CO)n1)N1CC(Oc2ccccc2Cl)=CC1=O [Example 218, (S)-2-[4-(2-Chloro-phenoxy)-2-oxo-2,5-dihydro-pyrrol-1-yl]-4,4-difluoro-pentanoic acid [1-((R)-2,3-dihydroxy-propyl)-1H-pyrazol-3-yl]-amide]
0.048 | CC[C@@H](C)C[C@@H](C(=O)Nc1ccn(C[C@@H](O)CO)n1)N1CC(Oc2ccccc2Cl)=CC1=O [Example 255, (2S,4R)-2-[4-(2-Chloro-phenoxy)-2-oxo-2,5-dihydro-pyrrol-1-yl]-4-methyl-hexanoic acid [1-((R)-2,3-dihydroxy-propyl)-1H-pyrazol-3-yl]-amide]
0.028 | CC(C)(O)Cn1ccc(NC(=O)[C@H](CC2CCCCC2)N2CC(Oc3ccccc3)=CC2=O)n1 [Example 213, (S)-3-cyclohexyl-N-[1-(2-hydroxy-2-methyl-propyl)-1H-pyrazol-3-yl]-2-(2-oxo-4-phenoxy-2,5-dihydro-pyrrol-1-yl)-propionamide]

The remaining lines, values behind:

SMILES | SC1.5 (concentration of activator that produced a 50% increase in the activity of GK) [µM]
COC1=CC(=O)N([C@@H](CC2CCCCC2)C(=O)Nc2ccn(CC(C)(C)O)n2)C1 [Example 56, (S)-3-Cyclohexyl-N-[1-(2-hydroxy-2-methyl-propyl)-1H-pyrazol-3-yl]-2-(4-methoxy-2-oxo-2,5-dihydro-pyrrol-1-yl)-propionamide] | 4.985
CC(C)(O)Cn1ccc(NC(=O)C(Cc2c(F)cccc2F)N2CC(Oc3c(F)cccc3F)=CC2=O)n1 (centres unmarked) [Example 59, 2-[4-(2,6-Difluoro-phenoxy)-2-oxo-2,5-dihydro-pyrrol-1-yl]-3-(2,6-difluoro-phenyl)-N-[1-(2-hydroxy-2-methyl-propyl)-1-H-pyrazol-3-yl]-propionamide] | 1.082
COC(=O)c1ccc(NC(=O)[C@H](CC2CCCC2)N2CC(OC)=CC2=O)nc1 [Example 10, 6-[(S)-3-Cyclopentyl-2-(4-methoxy-2-oxo-2,5-dihydro-pyrrol-1-yl)-propionylamino]-nicotinic acid methyl ester] | 1.855
Cc1ccccc1OC1=CC(=O)N([C@@H](CC(C)C)C(=O)Nc2ccn(CCO[Si](C)(C)C(C)(C)C)n2)C1 [Example 121, (S)-4-Methyl-2-(2-oxo-4-o-tolyloxy-2,5-dihydro-pyrrol-1-yl)-pentanoic acid {1-[2-(t-butyl-dimethyl-silanyloxy)-ethyl]-1H-pyrazol-3-yl}-amide] | 0.746
COc1ccc(OC2=CC(=O)N([C@@H](CC(C)C)C(=O)Nc3ccn(C[C@@H](O)CO)n3)C2)cc1 [Example 99, (S)-2-[4-(4-Methoxy-phenoxy)-2-oxo-2,5-dihydro-pyrrol-1-yl]-4-methyl-pentanoic acid [1-((R)-2,3-dihydroxy-propyl)-1H-pyrazol-3-yl]-amide] | 0.747
O=C(Nc1ccn(C[C@@H](O)CO)n1)[C@H](CC1CCCCC1)N1CC(Oc2c(F)cccc2F)=CC1=O [Example 38, (S)-3-Cyclohexyl-2-[4-(2,6-difluoro-phenoxy)-2-oxo-2,5-dihydro-pyrrol-1-yl]-N-[1-((R)-2,3-dihydroxy-propyl)-1H-pyrazol-3-yl]-propionamide] | 0.027
CC(C)C[C@@H](C(=O)Nc1ccn(C[C@@H](O)CO)n1)N1CC(Oc2ccc(F)cc2F)=CC1=O [Example 102, (S)-2-[4-(2,4-Difluoro-phenoxy)-2-oxo-2,5-dihydro-pyrrol-1-yl]-4-methyl-pentanoic acid [1-((R)-2,3-dihydroxy-propyl)-1H-pyrazol-3-yl]-amide] | 0.578
CC(C)C[C@@H](C(=O)Nc1ccn(C[C@@H](O)CO)n1)N1CC(Oc2cccc3c2CCCC3)=CC1=O [Example 98, (S)-4-Methyl-2-[2-oxo-4-(5,6,7,8-tetrahydro-naphthalen-1-yloxy)-2,5-dihydro-pyrrol-1-yl]-pentanoic acid [1-((R)-2,3-dihydroxy-propyl)-1H-pyrazol-3-yl]-amide] | 0.212
COc1cccc(OC2=CC(=O)N([C@@H](CC3CCCC3)C(=O)Nc3ccn(CC(C)(C)O)n3)C2)c1Cl [Example 54, (S)-2-[4-(2-chloro-3-methoxy-phenoxy)-2-oxo-2,5-dihydro-pyrrol-1-yl]-3-cyclopentyl-N-[1-(2-hydroxy-2-methyl-propyl)-1H-pyrazol-3-yl]-propionamide] | 0.008
CC(C)(O)Cn1ccc(NC(=O)[C@H](CC2CCCCC2)N2CC(OCC3COc4ccccc4O3)=CC2=O)n1 (stereo partly drawn) [Example 60, (S)-3-Cyclohexyl-2-[4-(2,3-dihydro-benzo[1,4]dioxin-2-ylmethoxy)-2-oxo-2,5-dihydro-pyrrol-1-yl]-N-[1-(2-hydroxy-2-methyl-propyl)-1-H-pyrazol-3-yl]-propionamide] | 0.99
COC[C@H](C)OC1=CC(=O)N([C@@H](CC2CCCC2)C(=O)Nc2ccn(CC(C)(C)O)n2)C1 [Example 13, (S)-3-Cyclopentyl-N-[1-(2-hydroxy-2-methyl-propyl)-1H-pyrazol-3-yl]-2-[4-((S)-2-methoxy-1-methyl-ethoxy)-2-oxo-2,5-dihydro-pyrrol-1-yl]-propionamide] | 4.062
CC(C)C[C@@H](C(=O)Nc1ccn(C[C@@H](O)CO)n1)N1CC(Oc2cccc(Cl)c2F)=CC1=O [Example 97, (S)-2-[4-(3-Chloro-2-fluoro-phenoxy)-2-oxo-2,5-dihydro-pyrrol-1-yl]-4-methyl-pentanoic acid [1-((R)-2,3-dihydroxy-propyl)-1H-pyrazol-3-yl]-amide] | 0.168
